Results as given in patent publication US7432260B2, “Pyrimidine compounds” (Cyclacel Limted, priority 2002, dated 2008).
Like-named read-outs stand apart in the source and are kept apart here.

Key:
MCF-7 = assay: 72-h MTT cytotoxicity assay MCF-7; format: cell-based; conditions: Homo sapiens, MCF7, 72 h; Table 5; Breast
Experimental: (§1) MTT cytotoxicity assay. […] Standard 72-h MTT (thiazolyl blue; 3-[4,5-dimethylthiazol-2-yl]-2,5-diphenyltetrazolium bromide) assays were performed (Haselsberger, K.; Peterson, D. C.; Thomas, D. G.; Darling, J. L. Anti Cancer Drugs 1996, 7, 331-8; Loveland, B. E.; Johns, T. G.; Mackay, I. R.; Vaillant, F.; Wang, Z. X.; Hertzog, P. J. Biochemistry International 1992, 27, 501-10). In short: cells were seeded into 96-well plates according to doubling time and incubated overnight at 37° C. Test compounds were made up in DMSO and a 1/3 dilution series prepared in 100 μL cell media, added to cells (in triplicates) and incubated for 72 ho at 37° C. MTT was made up as a stock of 5 mg/mL in cell media and filter-sterilised. Media was removed from cells followed by a wash with 200 μL PBS.
(§2) MTT solution was then added at 20 μL per well and incubated in the dark at 37° C. for 4 h. MTT solution was removed and cells again washed with 200 μL PBS. MTT dye was solubilised with 200 μL per well of DMSO with agitation.

CDK7/cyclin H = CDK7/cyclin H (Homo sapiens, UniProt P50613); assay: CDK7 assay; format: biochemical
Chain of CDK7/cyclin H (P50613 whole entry): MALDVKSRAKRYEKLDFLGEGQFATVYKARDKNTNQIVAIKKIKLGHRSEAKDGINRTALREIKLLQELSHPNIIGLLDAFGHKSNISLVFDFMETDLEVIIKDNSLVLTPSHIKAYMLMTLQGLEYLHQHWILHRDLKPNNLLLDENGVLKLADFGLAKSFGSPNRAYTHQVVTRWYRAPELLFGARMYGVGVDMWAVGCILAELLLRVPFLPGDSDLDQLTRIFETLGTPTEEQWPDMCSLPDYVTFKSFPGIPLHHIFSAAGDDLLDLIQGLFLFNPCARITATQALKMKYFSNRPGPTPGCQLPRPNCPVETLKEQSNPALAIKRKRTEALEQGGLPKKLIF
Procedure, shortened: (§3)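 Recombinant human CDK7/cyclin H or CDK9/cyclin T1 (0.5–2 μg) phosphorylated biotinylated CTD heptapeptide-repeat substrate for 45 min at 30 °C in MOPS pH 7.2 buffer with 15 mM MgCl2 and 100 μM ATP plus [γ-32P]ATP. After avidin capture on P81 filters and phosphoric acid washes, 32P incorporation was counted by scintillation.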

[1] = molecular target: PKCα (protein kinase C α) (Homo sapiens, UniProt P17252); assay: Kinase assay PKCα; format: biochemical; conditions: Table 3 selectivity panel; read-out: Kinase specificity IC50 PKCα
Experimental: Kinase assays. […] This was achieved by measurement of incorporation of radioactive phosphate from ATP into appropriate polypeptide substrates. Recombinant protein kinases and kinase complexes were produced or obtained commercially. Assays were performed using 96-well plates and appropriate assay buffers (typically 25 mM β-glycerophosphate, 20 mM MOPS, 5 mM EGTA, 1 mM DTT, 1 mM […], pH 7.4), into which were added 2-4 μg of active enzyme with appropriate substrates. The reactions were initiated by addition of Mg/ATP mix (15 mM MgCl2+100 μM ATP with 30-50 kBq per well of [γ-^32P]-ATP) and mixtures incubated as required at 30° C. Reactions were stopped on ice, followed by filtration through p81 filterplates or GF/C filterplates (Whatman Polyfiltronics, Kent, UK). After washing 3 times with 75 mM aq orthophosphoric acid, plates were dried, scintillant added and incorporated radioactivity measured in a scintillation counter (TopCount, Packard Instruments, Pangbourne, Berks, UK). Compounds for kinase assay were made-up as 10 mM stocks in DMSO and diluted into 10% DMSO inrassay buffer.

HT29 = assay: 72-h MTT cytotoxicity assay HT29; format: cell-based; conditions: Homo sapiens, HT-29, 72 h
Procedure, shortened: (§4)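 Standard MTT test: 72 h drug exposure at 37° C, 1/3 dilution steps, triplicates, then 4 h MTT and DMSO solubilisation.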

Messa-Dx5 = assay: 72-h MTT cytotoxicity assay Messa-Dx5; format: cell-based; conditions: Homo sapiens, MES-SA/Dx5, 72 h; Table 5; Uterine
Experimental: as §1, §2

CDK2/cyclin A = CDK2/cyclin A (Homo sapiens, UniProt P24941); assay: Kinase assay CDK2/cyclin A; format: biochemical
Procedure, shortened: (§5)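 Enzyme + substrate in β-glycerophosphate/MOPS/EGTA/DTT buffer, pH 7.4 → Mg/ATP (100 μM ATP, γ-32P) start → 30° C incubation → ice stop → P81 or GF/C filtration, H3PO4 wash → scintillation count.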

Saos-2 = assay: 72-h MTT cytotoxicity assay Saos-2; format: cell-based; conditions: Homo sapiens, SAOS-2, 72 h, Table 5; Bone osteosarcoma
Procedure, shortened: as §4

PLK-1 = PLK-1 (Homo sapiens, UniProt P53350); assay: Kinase assay PLK-1; format: biochemical
Chain of PLK-1 (P53350 whole entry): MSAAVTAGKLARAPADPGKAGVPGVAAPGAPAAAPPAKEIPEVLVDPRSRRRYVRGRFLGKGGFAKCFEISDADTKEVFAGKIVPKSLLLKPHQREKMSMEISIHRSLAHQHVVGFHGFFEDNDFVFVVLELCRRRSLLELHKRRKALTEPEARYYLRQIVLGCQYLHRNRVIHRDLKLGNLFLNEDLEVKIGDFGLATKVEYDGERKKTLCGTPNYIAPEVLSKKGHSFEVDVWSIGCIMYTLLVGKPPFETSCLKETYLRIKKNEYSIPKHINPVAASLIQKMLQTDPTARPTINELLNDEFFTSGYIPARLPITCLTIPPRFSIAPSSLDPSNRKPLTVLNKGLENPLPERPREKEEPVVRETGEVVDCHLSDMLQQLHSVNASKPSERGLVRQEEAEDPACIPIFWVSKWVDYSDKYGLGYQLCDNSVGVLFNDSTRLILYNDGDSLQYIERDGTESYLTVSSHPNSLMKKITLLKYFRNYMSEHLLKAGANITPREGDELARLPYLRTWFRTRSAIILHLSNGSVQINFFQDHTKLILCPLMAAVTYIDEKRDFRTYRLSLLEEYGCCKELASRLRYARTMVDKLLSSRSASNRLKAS
Procedure, shortened: as §5

A549 = assay: 72-h MTT cytotoxicity assay A549; format: cell-based; conditions: Homo sapiens, A549, 72 h
Procedure, shortened: as §4

SKUT-1 = assay: 72-h MTT cytotoxicity assay SKUT-1; format: cell-based; conditions: Homo sapiens, SK-UT-1, 72 h; Table 5; Leiomyosarcoma
Experimental: as §1, §2

CCRF-CEM = assay: 72-h MTT cytotoxicity assay CCRF-CEM; format: cell-based; conditions: Homo sapiens, Table 5, Leukemia
Experimental: as §1, §2

U2OS = assay: 72-h MTT cytotoxicity assay U2OS; format: cell-based; conditions: Homo sapiens, Table 5, Bone osteosarcoma
Experimental: as §1, §2

CDK9/cyclin T1 = CDK9/cyclin T1 (Homo sapiens, UniProt P50750); assay: CDK9 assay; format: biochemical
Chain of CDK9/cyclin T1 (P50750 whole entry): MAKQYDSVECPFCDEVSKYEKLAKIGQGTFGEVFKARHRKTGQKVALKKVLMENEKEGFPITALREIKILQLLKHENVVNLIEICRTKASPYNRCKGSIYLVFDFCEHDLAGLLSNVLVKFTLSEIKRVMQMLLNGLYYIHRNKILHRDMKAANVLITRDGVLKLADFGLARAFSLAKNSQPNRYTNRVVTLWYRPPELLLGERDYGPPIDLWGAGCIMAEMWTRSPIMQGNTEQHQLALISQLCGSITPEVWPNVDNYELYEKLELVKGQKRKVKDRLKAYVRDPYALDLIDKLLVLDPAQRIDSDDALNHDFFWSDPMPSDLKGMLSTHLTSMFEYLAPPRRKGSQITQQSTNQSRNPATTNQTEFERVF
Chain of CDK9/cyclin T1 (O60563 whole entry partner): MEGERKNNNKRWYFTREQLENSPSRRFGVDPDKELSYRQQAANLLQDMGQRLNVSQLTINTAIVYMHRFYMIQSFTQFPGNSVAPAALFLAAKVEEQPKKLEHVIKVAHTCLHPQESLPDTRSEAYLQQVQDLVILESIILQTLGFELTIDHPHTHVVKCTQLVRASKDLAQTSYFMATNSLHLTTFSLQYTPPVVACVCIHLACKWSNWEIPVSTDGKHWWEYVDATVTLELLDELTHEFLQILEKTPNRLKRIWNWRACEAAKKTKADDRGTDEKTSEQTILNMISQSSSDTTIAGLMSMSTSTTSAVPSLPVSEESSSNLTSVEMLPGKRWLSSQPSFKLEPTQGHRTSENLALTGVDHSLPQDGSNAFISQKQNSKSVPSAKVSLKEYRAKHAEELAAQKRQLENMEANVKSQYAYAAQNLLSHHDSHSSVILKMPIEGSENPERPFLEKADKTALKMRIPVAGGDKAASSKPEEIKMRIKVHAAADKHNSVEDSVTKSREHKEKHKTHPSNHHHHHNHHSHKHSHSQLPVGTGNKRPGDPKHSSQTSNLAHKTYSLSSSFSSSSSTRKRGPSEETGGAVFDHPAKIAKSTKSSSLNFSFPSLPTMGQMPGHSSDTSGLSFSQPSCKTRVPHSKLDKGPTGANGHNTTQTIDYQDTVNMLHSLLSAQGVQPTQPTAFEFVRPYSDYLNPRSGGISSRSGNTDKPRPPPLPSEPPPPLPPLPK
Procedure, shortened: as §3

AGS = assay: 72-h MTT cytotoxicity assay AGS; format: cell-based; conditions: Homo sapiens, Table 5, Gastric adenocarcinoma
Experimental: as §1, §2

GSK-3β = GSK-3β (Homo sapiens, UniProt P49841); assay: Kinase assay GSK-3β; format: biochemical
Chain of GSK-3β (P49841 whole entry): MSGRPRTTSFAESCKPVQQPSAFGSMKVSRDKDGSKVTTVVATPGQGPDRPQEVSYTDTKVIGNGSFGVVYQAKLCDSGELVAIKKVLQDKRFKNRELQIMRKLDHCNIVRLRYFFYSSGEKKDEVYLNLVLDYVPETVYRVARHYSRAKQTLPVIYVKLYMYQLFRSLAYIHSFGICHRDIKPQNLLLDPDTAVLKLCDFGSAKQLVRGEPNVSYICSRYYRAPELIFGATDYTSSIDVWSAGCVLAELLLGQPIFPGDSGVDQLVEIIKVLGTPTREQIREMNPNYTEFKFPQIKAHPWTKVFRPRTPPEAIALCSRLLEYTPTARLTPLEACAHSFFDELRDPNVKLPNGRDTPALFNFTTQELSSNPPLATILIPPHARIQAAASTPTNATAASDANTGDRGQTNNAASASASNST
Procedure, shortened: as §5

SK-N-MC = assay: 72-h MTT cytotoxicity assay SK-N-MC; format: cell-based; conditions: Homo sapiens, Table 5, Neuroblastoma
Experimental: as §1, §2

CDK4/cyclin D1 = CDK4/cyclin D1 (Homo sapiens, UniProt P11802); assay: Kinase assay CDK4/cyclin D1; format: biochemical
Chain of CDK4/cyclin D1 (P11802 whole entry): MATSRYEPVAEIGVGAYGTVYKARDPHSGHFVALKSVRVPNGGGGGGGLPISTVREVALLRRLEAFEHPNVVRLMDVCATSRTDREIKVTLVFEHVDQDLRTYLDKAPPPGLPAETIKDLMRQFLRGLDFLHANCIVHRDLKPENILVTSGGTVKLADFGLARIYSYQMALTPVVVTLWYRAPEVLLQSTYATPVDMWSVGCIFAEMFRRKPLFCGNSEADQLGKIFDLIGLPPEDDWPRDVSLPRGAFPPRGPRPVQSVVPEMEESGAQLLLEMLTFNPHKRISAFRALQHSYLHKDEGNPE
Chain of CDK4/cyclin D1 (P24385 whole entry partner): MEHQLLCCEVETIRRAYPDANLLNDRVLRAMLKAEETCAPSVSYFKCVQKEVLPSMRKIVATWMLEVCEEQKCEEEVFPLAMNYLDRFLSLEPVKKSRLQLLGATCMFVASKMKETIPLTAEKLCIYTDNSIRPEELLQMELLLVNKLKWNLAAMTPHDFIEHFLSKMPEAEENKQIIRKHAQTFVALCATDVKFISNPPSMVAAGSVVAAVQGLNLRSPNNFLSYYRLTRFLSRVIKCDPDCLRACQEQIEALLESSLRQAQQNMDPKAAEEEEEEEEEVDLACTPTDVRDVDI
Procedure, shortened: as §5

WI38 = assay: 72-h MTT cytotoxicity assay WI38; format: cell-based; conditions: Homo sapiens, WI-38, 72 h; Table 5; Foetal lung fibroblast (non-transformed)
Experimental: as §1, §2

CDK1/cyclin B = CDK1/cyclin B (Homo sapiens, UniProt P06493); assay: Kinase assay CDK1/cyclin B; format: biochemical
Chain of CDK1/cyclin B (P06493 whole entry): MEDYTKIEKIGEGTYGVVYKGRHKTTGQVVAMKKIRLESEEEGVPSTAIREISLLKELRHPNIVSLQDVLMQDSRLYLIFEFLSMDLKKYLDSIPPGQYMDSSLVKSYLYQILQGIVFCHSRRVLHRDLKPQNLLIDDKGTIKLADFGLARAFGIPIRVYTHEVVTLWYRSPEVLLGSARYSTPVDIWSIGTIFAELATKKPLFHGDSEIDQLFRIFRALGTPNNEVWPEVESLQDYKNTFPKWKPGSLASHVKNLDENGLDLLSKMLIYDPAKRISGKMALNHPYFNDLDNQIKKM
Chain of CDK1/cyclin B (P14635 whole entry partner): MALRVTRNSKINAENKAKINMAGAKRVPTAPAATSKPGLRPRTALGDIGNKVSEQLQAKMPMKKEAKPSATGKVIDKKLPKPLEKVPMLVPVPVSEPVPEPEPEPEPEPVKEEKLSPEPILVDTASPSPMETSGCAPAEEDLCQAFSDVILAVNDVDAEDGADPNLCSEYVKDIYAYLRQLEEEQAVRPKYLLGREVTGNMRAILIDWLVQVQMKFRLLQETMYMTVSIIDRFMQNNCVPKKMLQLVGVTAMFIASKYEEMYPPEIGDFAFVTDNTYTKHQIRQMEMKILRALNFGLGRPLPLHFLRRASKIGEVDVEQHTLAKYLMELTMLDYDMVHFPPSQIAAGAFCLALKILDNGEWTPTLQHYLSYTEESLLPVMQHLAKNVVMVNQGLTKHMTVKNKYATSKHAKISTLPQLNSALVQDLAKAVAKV
Procedure, shortened: as §5

For CC[C@@H](N)C(=O)Nc1nc(C)c(-c2ccnc(Nc3cccc([N+](=O)[O-])c3)n2)s1 [Compound 16, (2R)-2-Amino-N-{4-methyl-5-[2-(3-nitro-phenylamino)-pyrimidin-4-yl]-thiazol-2-yl}-butyramide], the IC50 (MCF-7) was 390 nM, the IC50 (CDK7/cyclin H; Table 2, read-out: Kinase Inhibition IC50 CDK7 cyclin H) was 1100 nM and the IC50 (CDK7/cyclin H; Table 3 selectivity panel, CDK7/cyclin H/MAT 1 complex, read-out: Kinase specificity IC50 CDK7/H) was 970 nM. The IC50 [1] was 53000 nM, the IC50 (HT29; Table 4) was 290 nM and the IC50 (HT29; Table 5, Colon) was 300 nM. The IC50 (Messa-Dx5) was 100 nM, the IC50 (CDK2/cyclin A; Table 2, read-out: Kinase Inhibition IC50 CDK2 cyclin A) was 650 nM and the IC50 (CDK2/cyclin A; Table 3 selectivity panel, read-out: Kinase specificity IC50 CDK2/A) was 650 nM. For the same compound, the IC50 (Saos-2) was 600 nM, the IC50 (PLK-1; Table 2, read-out: Kinase Inhibition IC50 PLK-1) was over 150000 nM and the IC50 (PLK-1; Table 3 selectivity panel, read-out: Kinase specificity IC50 PLK1) was over 100000 nM. It also gave an IC50 (A549; Table 4) of 530 nM, an IC50 (A549; Table 5, Lung) of 500 nM and an IC50 (SKUT-1) of 200 nM. For the same compound, the IC50 (CCRF-CEM) was 1100 nM, the IC50 (U2OS) was 480 nM and the IC50 (CDK9/cyclin T1; Table 2, read-out: Kinase Inhibition IC50 CDK9 cyclin T1) was 110 nM. The IC50 (CDK9/cyclin T1; Table 3 selectivity panel, read-out: Kinase specificity IC50 CDK9/T1) was 200 nM, the IC50 (AGS) was 300 nM and the IC50 (GSK-3β; Table 2, read-out: Kinase Inhibition IC50 GSK-3β) was 680 nM. The IC50 (GSK-3β; Table 3 selectivity panel, glycogen synthase kinase 3β, read-out: Kinase specificity IC50 GSK-3) was 680 nM, the IC50 (SK-N-MC) was 400 nM and the IC50 (CDK4/cyclin D1; Table 2, read-out: Kinase Inhibition IC50 CDK4 cyclin D1) was 6700 nM. For the same compound, the IC50 (CDK4/cyclin D1; Table 3 selectivity panel, read-out: Kinase specificity IC50 CDK4/D1) was 6700 nM, the IC50 (WI38) was 1400 nM and the IC50 (CDK1/cyclin B; Table 2, read-out: Kinase Inhibition IC50 CDK1 cyclin B) was 2800 nM. It also gave an IC50 (CDK1/cyclin B; Table 3 selectivity panel, read-out: Kinase specificity IC50 CDK1/B1) of 2800 nM.
